US7393868B2, “AMPA receptor potentiators” (Eli Lilly and Company, priority 2005, dated 2008)

Target: T1, human iGluR4 (Homo sapiens, UniProt P48058)
T1 construct: expressed in transfected cells; host or cells: HEK293
Assay: Whole-cell voltage clamp potentiation of glutamate-evoked current in HEK293 cells stably expressing human iGluR4
Format: cell-based
Conditions: whole-cell voltage clamp at −60 mV, potentiation of current evoked by 1 mM glutamate, Hill equation fit
Description: HEK293 cells stably expressing human iGluR4(obtained as described in European Patent Application Publication No. EP-A1-0583917) are used in the electrophysiological characterization of AMPA receptor potentiators. The extracellular recording solution contains (in mM): 140 NaCl, 5 KCl, 10 HEPES, 1 MgCl2, 2 CaCl2, 10 glucose, pH=7.4 with NaOH, 295 mOsm kg−1. The intracellular recording solution contains (in mM): 140 CsCl, 1 MgCl2, 10 HEPES, (N-[2-hydroxyethyl]piperazine-N1-[2-ethanesulfonic acid]) 10 EGTA (ethylene-bis(oxyethylene-nitrilo)tetraacetic acid), pH=7.2 with CsOH, 295 mOsm kg−1. With these solutions, recording pipettes have a resistance of 2-3 MΩ. Using the whole-cell voltage clamp technique (Hamill et al. (1981) Pflügers Arch., 391: 85-100), cells are voltage-clamped at −60 mV and control current responses to 1 mM glutamate are evoked. Responses to 1 mM glutamate are then determined in the presence of test compound. Compounds are deemed active in this test if, at a test concentration of 10 μM or less, they produce a greater than 10% increase in the value of the current evoked by 1 mM glutamate.
In order to determine the potency of test compounds, the concentration of the test compound, both in the bathing solution and co-applied with glutamate, is increased in half log units until the maximum effect was seen. Data collected in this manner are fit to the Hill equation, yielding an EC50 value, indicative of the potency of the test compound. Reversibility of test compound activity is determined by assessing control glutamate 1 mM responses. Once the control responses to the glutamate challenge are re-established, the potentiation of these responses by 100 μM cyclothiazide is determined by its inclusion in both the bathing solution and the glutamate-containing solution. In this manner, the efficacy of the test compound relative to that of cyclothiazide can be determined.

T1 sequence (P48058 21-902): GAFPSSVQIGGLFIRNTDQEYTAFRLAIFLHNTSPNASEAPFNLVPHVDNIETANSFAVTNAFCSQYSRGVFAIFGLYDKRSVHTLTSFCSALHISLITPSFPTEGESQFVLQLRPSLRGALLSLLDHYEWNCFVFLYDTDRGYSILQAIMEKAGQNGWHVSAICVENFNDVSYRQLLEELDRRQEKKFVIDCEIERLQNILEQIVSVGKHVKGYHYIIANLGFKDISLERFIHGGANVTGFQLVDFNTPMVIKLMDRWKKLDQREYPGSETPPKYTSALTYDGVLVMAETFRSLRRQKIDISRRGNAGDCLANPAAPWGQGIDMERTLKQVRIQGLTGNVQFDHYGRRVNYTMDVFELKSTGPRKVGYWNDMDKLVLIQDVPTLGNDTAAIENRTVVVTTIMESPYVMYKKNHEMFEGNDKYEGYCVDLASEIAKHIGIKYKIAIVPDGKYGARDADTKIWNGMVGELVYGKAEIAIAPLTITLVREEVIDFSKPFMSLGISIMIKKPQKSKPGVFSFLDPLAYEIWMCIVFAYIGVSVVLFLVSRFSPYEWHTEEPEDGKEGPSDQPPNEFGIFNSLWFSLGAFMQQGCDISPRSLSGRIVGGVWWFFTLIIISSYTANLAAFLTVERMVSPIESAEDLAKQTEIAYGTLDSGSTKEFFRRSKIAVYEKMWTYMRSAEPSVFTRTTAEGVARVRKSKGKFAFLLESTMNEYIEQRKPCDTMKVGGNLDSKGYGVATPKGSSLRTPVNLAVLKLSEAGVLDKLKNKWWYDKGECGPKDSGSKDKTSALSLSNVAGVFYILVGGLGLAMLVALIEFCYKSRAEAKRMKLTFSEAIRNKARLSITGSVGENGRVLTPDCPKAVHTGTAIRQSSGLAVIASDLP

EC50 [nM] | SMILES
977 | COc1cc(C(=O)O)ccc1-c1ccc(-c2ccccc2NS(=O)(=O)C(C)C)cc1 [Example 46, 2″-Methoxy-2-(propane-2-sulfonylamino)-[1,1′;4′,1″]terphenyl-4″-carboxylic acid]
2460 | CC(C)S(=O)(=O)Nc1cnccc1-c1ccc(-c2ccc(C(=O)O)cc2C#N)cc1 [Example 51, 2-Cyano-4′-[3-(propane-2-sulfonylamino)-pyridin-4-yl]-biphenyl-4-carboxylic acid]
151 | CC(C)S(=O)(=O)Nc1ccsc1-c1ccc(-c2cc(F)c(O)c(F)c2C#N)cc1 [Example 56, Propane-2-sulfonic acid [2-(2′-cyano-3′,5′-difluoro-4′-hydroxy-biphenyl-4-yl)-thiophen-3-yl]-amide]
188 | CC(C)S(=O)(=O)Nc1ccsc1-c1ccc(-c2ccc(C(=O)O)cc2C#N)cc1 [Example 72, 2-Cyano-4′-[3-(propane-2-sulfonylamino)-thiophen-2-yl]-biphenyl-4-carboxylic acid]

SMILES | EC50 [nM]
CC(C)S(=O)(=O)Nc1ccsc1-c1ccc(-c2cc(F)c(O)c(F)c2)cc1 [Example 11, Propane-2-sulfonic acid [2-(3′,5′-difluoro-4′-hydroxy-biphenyl-4-yl)-thiophen-3-yl]-amide] | 720
